# Results published in ChEMBL document CHEMBL3046893, “Antimicrobial screening of novel synthesized benzimidazole nucleus containing 4-oxo-thiazolidine derivatives” (2012).
# Test system: Aspergillus niger
# Assay: Antifungal activity against Aspergillus niger MTCC 282
# Type: functional
# Conditions: not given
row,SMILES,MIC [µg/mL]
1,Cc1ccc2nc(-c3ccccc3N3C(=O)CSC3c3ccccc3Cl)[nH]c2c1 (configuration not stated),1000
2,Cc1ccc2nc(-c3ccccc3N3C(=O)CSC3c3ccc(Cl)cc3Cl)[nH]c2c1 (configuration not stated),500
3,Cc1ccc2nc(-c3ccccc3N3C(=O)CSC3c3ccc(F)cc3)[nH]c2c1 (configuration not stated),500
4,Cc1ccc2nc(-c3ccccc3N3C(=O)CSC3c3ccc(O)cc3)[nH]c2c1 (configuration not stated),1000

# Other lines, results leading:
row,MIC [µg/mL],SMILES
1,500,Cc1ccc2nc(-c3ccccc3N3C(=O)CSC3c3ccc(Cl)cc3)[nH]c2c1 (configuration not stated)
2,100,COC1=CC(=O)C[C@@H](C)[C@]12Oc1c(Cl)c(OC)cc(OC)c1C2=O [GRISEOFULVIN]

# Test system: Staphylococcus aureus
# Assay: Antibacterial activity against Staphylococcus aureus MTCC 96 after 24 to 48 hr by serial broth dilution method
# Type: functional
# Conditions: not given
row,MIC [µg/mL],SMILES
1,500,Cc1ccc2nc(-c3ccccc3N3C(=O)CSC3c3ccccc3Cl)[nH]c2c1 (configuration not stated)
2,100,Cc1ccc2nc(-c3ccccc3N3C(=O)CSC3c3ccc(Cl)cc3)[nH]c2c1 (configuration not stated)
3,1000,Cc1ccc2nc(-c3ccccc3N3C(=O)CSC3c3ccc(Cl)cc3Cl)[nH]c2c1 (configuration not stated)
4,250,Cc1ccc2nc(-c3ccccc3N3C(=O)CSC3c3ccc(F)cc3)[nH]c2c1 (configuration not stated)
5,500,Cc1ccc2nc(-c3ccccc3N3C(=O)CSC3c3ccc(O)cc3)[nH]c2c1 (configuration not stated)

row,SMILES,MIC [µg/mL]
1,CC1(C)S[C@@H]2[C@H](NC(=O)[C@H](N)c3ccccc3)C(=O)N2[C@H]1C(=O)O [AMPICILLIN],250

# Test system: Candida albicans
# Assay: Antifungal activity against Candida albicans MTCC 227
# Type: functional
# Conditions: not given
row,SMILES,MIC [µg/mL]
1,Cc1ccc2nc(-c3ccccc3N3C(=O)CSC3c3ccccc3Cl)[nH]c2c1 (configuration not stated),1000
2,Cc1ccc2nc(-c3ccccc3N3C(=O)CSC3c3ccc(Cl)cc3Cl)[nH]c2c1 (configuration not stated),250
3,Cc1ccc2nc(-c3ccccc3N3C(=O)CSC3c3ccc(F)cc3)[nH]c2c1 (configuration not stated),500
4,Cc1ccc2nc(-c3ccccc3N3C(=O)CSC3c3ccc(O)cc3)[nH]c2c1 (configuration not stated),1000

# Second part, the compound after the results:
row,MIC [µg/mL],SMILES
1,500,Cc1ccc2nc(-c3ccccc3N3C(=O)CSC3c3ccc(Cl)cc3)[nH]c2c1 (configuration not stated)
2,500,COC1=CC(=O)C[C@@H](C)[C@]12Oc1c(Cl)c(OC)cc(OC)c1C2=O [GRISEOFULVIN]

# Test system: Pseudomonas aeruginosa
# Assay: Antibacterial activity against Pseudomonas aeruginosa MTCC 1688 after 24 to 48 hr by serial broth dilution method
# Type: functional
# Conditions: not given
row,MIC [µg/mL],SMILES
1,1000,Cc1ccc2nc(-c3ccccc3N3C(=O)CSC3c3ccccc3Cl)[nH]c2c1 (configuration not stated)
2,250,Cc1ccc2nc(-c3ccccc3N3C(=O)CSC3c3ccc(Cl)cc3)[nH]c2c1 (configuration not stated)
3,100,Cc1ccc2nc(-c3ccccc3N3C(=O)CSC3c3ccc(Cl)cc3Cl)[nH]c2c1 (configuration not stated)
4,250,Cc1ccc2nc(-c3ccccc3N3C(=O)CSC3c3ccc(F)cc3)[nH]c2c1 (configuration not stated)
5,250,Cc1ccc2nc(-c3ccccc3N3C(=O)CSC3c3ccc(O)cc3)[nH]c2c1 (configuration not stated)

row,SMILES,MIC [µg/mL]
1,CC1(C)S[C@@H]2[C@H](NC(=O)[C@H](N)c3ccccc3)C(=O)N2[C@H]1C(=O)O [AMPICILLIN],100

# Test system: Escherichia coli
# Assay: Antibacterial activity against Escherichia coli MTCC 443 after 24 to 48 hr by serial broth dilution method
# Type: functional
# Conditions: not given
row,MIC [µg/mL],SMILES
1,1000,Cc1ccc2nc(-c3ccccc3N3C(=O)CSC3c3ccccc3Cl)[nH]c2c1 (configuration not stated)
2,125,Cc1ccc2nc(-c3ccccc3N3C(=O)CSC3c3ccc(Cl)cc3)[nH]c2c1 (configuration not stated)
3,62.5,Cc1ccc2nc(-c3ccccc3N3C(=O)CSC3c3ccc(Cl)cc3Cl)[nH]c2c1 (configuration not stated)
4,250,Cc1ccc2nc(-c3ccccc3N3C(=O)CSC3c3ccc(F)cc3)[nH]c2c1 (configuration not stated)
5,125,Cc1ccc2nc(-c3ccccc3N3C(=O)CSC3c3ccc(O)cc3)[nH]c2c1 (configuration not stated)

row,SMILES,MIC [µg/mL]
1,CC1(C)S[C@@H]2[C@H](NC(=O)[C@H](N)c3ccccc3)C(=O)N2[C@H]1C(=O)O [AMPICILLIN],100

# Test system: Streptococcus pyogenes
# Assay: Antibacterial activity against Streptococcus pyogenes MTCC 442 after 24 to 48 hr by serial broth dilution method
# Type: functional
# Conditions: not given
row,MIC [µg/mL],SMILES
1,500,Cc1ccc2nc(-c3ccccc3N3C(=O)CSC3c3ccc(Cl)cc3Cl)[nH]c2c1 (configuration not stated)

# Same assay, conditions: read-out: MIC
row,MIC [µg/mL],SMILES
1,1000,Cc1ccc2nc(-c3ccccc3N3C(=O)CSC3c3ccccc3Cl)[nH]c2c1 (configuration not stated)
2,62.5,Cc1ccc2nc(-c3ccccc3N3C(=O)CSC3c3ccc(Cl)cc3)[nH]c2c1 (configuration not stated)
3,250,Cc1ccc2nc(-c3ccccc3N3C(=O)CSC3c3ccc(F)cc3)[nH]c2c1 (configuration not stated)
4,500,Cc1ccc2nc(-c3ccccc3N3C(=O)CSC3c3ccc(O)cc3)[nH]c2c1 (configuration not stated)

row,SMILES,MIC [µg/mL]
1,CC1(C)S[C@@H]2[C@H](NC(=O)[C@H](N)c3ccccc3)C(=O)N2[C@H]1C(=O)O [AMPICILLIN],100

# Test system: Aspergillus clavatus
# Assay: Antifungal activity against Aspergillus clavatus MTCC 1323
# Type: functional
# Conditions: not given
row,SMILES,MIC [µg/mL]
1,Cc1ccc2nc(-c3ccccc3N3C(=O)CSC3c3ccccc3Cl)[nH]c2c1 (configuration not stated),1000
2,Cc1ccc2nc(-c3ccccc3N3C(=O)CSC3c3ccc(Cl)cc3Cl)[nH]c2c1 (configuration not stated),500
3,Cc1ccc2nc(-c3ccccc3N3C(=O)CSC3c3ccc(F)cc3)[nH]c2c1 (configuration not stated),1000
4,Cc1ccc2nc(-c3ccccc3N3C(=O)CSC3c3ccc(O)cc3)[nH]c2c1 (configuration not stated),1000

# Next, values leading:
row,MIC [µg/mL],SMILES
1,1000,Cc1ccc2nc(-c3ccccc3N3C(=O)CSC3c3ccc(Cl)cc3)[nH]c2c1 (configuration not stated)
2,100,COC1=CC(=O)C[C@@H](C)[C@]12Oc1c(Cl)c(OC)cc(OC)c1C2=O [GRISEOFULVIN]
